Experimental data published in article PMC4156053, “A Conserved Mitochondrial ATP-binding Cassette Transporter Exports Glutathione Polysulfide for Cytosolic Metal Cofactor Assembly” (The Journal of Biological Chemistry, 2014).

Biological target: T1, ATM3 (Arabidopsis thaliana, UniProt Q9LVM1)
T1 construct: gene ABCB25; inside-out membrane vesicles or Ni-NTA purified in detergent; half-transporter that dimerizes
Assay: ATPase activity, malachite green Pi release
Type: biochemical
Details: 5 mM Na-ATP, 5 mM MgCl2, 0.1 M HEPES-KOH pH 7.0, 30 °C

T1 sequence (Q9LVM1 61-728): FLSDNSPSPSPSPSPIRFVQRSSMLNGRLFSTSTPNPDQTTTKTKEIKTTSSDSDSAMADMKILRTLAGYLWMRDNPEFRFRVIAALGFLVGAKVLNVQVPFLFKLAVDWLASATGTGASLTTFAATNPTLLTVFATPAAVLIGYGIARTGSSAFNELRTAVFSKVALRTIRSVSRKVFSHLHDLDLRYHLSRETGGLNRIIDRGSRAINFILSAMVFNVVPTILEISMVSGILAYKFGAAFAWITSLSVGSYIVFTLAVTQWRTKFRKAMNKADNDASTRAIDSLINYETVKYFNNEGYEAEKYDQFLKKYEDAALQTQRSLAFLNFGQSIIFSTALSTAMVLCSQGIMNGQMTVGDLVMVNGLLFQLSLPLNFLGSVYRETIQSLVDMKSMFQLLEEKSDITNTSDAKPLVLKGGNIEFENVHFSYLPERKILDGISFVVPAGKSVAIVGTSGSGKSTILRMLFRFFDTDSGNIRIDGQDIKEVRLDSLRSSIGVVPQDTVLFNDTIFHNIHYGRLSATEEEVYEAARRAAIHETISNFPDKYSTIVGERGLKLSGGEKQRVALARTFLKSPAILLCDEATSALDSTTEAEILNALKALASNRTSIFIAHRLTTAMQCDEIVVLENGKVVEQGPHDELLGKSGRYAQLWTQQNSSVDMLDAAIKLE

Compound: Nc1ncnc2c1ncn2[C@@H]1O[C@H](COP(=O)(O)OP(=O)(O)OP(=O)(O)O)[C@@H](O)[C@H]1O [ATP]
- ATPase activity, malachite green Pi release: retained their ATPase activity in detergent solution
